Assay results reported in patent publication US10973865B2, “Method of making solanaceae fruit extracts” (Provexis Natural Products Limited, priority 2008, dated 2021).
≈ marks a conversion by molar mass, not a printed value.

Experiments:
Format in all cases: cell-based, human
[1] = test system: platelet aggregation induced by arachidonic acid in platelet-rich plasma; assay: Inhibition of arachidonic acid-induced platelet aggregation in platelet-rich plasma (aggregometer); details: amount in mg inhibiting aggregation by 50% in 1 mL platelet-rich plasma, arachidonic acid 500 U/L, average of at least 3 IC50s; for IC50: Homo sapiens
Description: (§1) The experimental protocol described below was devised to determine the […] values of compounds isolated as described in 1.1.3. Crude bioassays to evaluate inhibition of platelet aggregation in vitro were performed on some crude extracts (data not shown) to help select fine fractions/compounds identified by HPLC for functional activity. This approach was considered necessary to avoid the need to assay each and ever compound (the would be thousands) in the fruit extracts.
(§2) An IC50 value represents the amount of a compound, in mg, required to inhibit by 50% the platelet aggregation induced under standardised conditions in 1 mL platelet-rich plasma, in comparison with control samples.
(§3) Blood for in vitro studies was collected from drug-free, healthy human volunteers, both male and female, aged 18-60 years, with normal platelet function. Subjects declared that they had not consumed drugs or supplements known to affect platelet function for a minimum of 10 days before providing a blood sample. Blood was collected after single venepuncture to an antecubital vein through siliconized needles into plastic citrated blood collection tubes (Sarstedt Monovettes, final concentration sodium citrate, 13 mmol/L). All blood was maintained at 37° C. from the time of blood sampling.
(§4) Platelet-rich plasma (PRP) was obtained by centrifugation of citrated blood for 15 minutes at 200×g, and was adjusted with platelet-poor plasma to a standard platelet number of 320±20×10^9/L prior to use. PRP was used for platelet function measurements within two hours.
(§5) The following agonists were used for platelet function measurements. Adenosine diphosphate (ADP), final concentration 10 μmol/L; collagen, final concentration 5 mg/L; arachidonic acid, final concentration 500 U/L (all from Helena Biosciences, Sunderland, UK); thrombin receptor-activating peptide (TRAP), final concentration 25 nmol/L (Sigma-Aldrich, Poole, UK). Agonists were prepared from stock solutions immediately before use, diluting into warmed physiological saline (0.9% NaCl).
(§6) Individual platelet inhibitors were prepared at a concentration of between 500 g/L and 100 g/L in either physiological saline, ultra-pure methanol or ultra-pure DMSO (Sigma-Aldrich, Poole, UK) and stored frozen until required. Stock solutions were then diluted with physiological saline immediately prior to use.
(§7) 450 μL PRP was incubated with 50 μL diluted inhibitor solution at 37° C. for 10 minutes, in low-retention epindorrfs. Inhibitor solutions were diluted such that the final concentration of methanol or DMSO in the PRP sample never exceeded 2%. Suitable control samples, containing 50 μL physiological saline matched for methanol or DMSO content as appropriate, were incubated simultaneously. For each inhibitor compound, 5 incubation concentrations were used; final concentrations of 0.05 mg/mL, 0.10 mg/mL, 1.00 mg/mL, 5.00 mg/mL and 10 mg/mL were used as standard.
(§8) After incubation with platelet inhibitors, PRP samples were transferred to glass cuvettes and the extent of aggregation induced by either ADP, collagen, TRAP or arachidonic acid was monitored over 10 minutes on a platelet aggregometer (PACKS 4, Helena Biosciences, Sunderland, UK). A control sample was run with each sample set. From the aggregation curves generated, the area under the curve was calculated for each PRP sample, and the inhibition of aggregation achieved at each inhibitor concentration was calculated by comparing the area under the curve for these PRP samples with that of the control sample. The inhibition of aggregation was expressed as % inhibition, compared to control, and from the 6 data points obtained per inhibitor compound, a dose-response curve was constructed. This curve was then used to predict the IC50 value for that inhibitor compound, as shown in 1.2, Results, and FIG. 1.
(§9) For each blood sample obtained, 6-point dose-response curves for 2 different inhibitory compounds could be generated. […]

[2] = test system: platelet aggregation induced by thrombin receptor-activating peptide (TRAP) in platelet-rich plasma; assay: Inhibition of TRAP-induced platelet aggregation in platelet-rich plasma (aggregometer); details: amount in mg inhibiting aggregation by 50% in 1 mL platelet-rich plasma, TRAP 25 nmol/L, average of at least 3 IC50s; for IC50: Homo sapiens
Description: as §1, §2, §3, §4, §5, §6, §7, §8, §9

[3] = test system: platelet aggregation induced by ADP in platelet-rich plasma; assay: Inhibition of ADP-induced platelet aggregation in platelet-rich plasma (aggregometer); details: amount in mg inhibiting aggregation by 50% in 1 mL platelet-rich plasma, ADP 10 μmol/L, average of at least 3 IC50s; for IC50: Homo sapiens
Description: as §1, §2, §3, §4, §5, §6, §7, §8, §9

[4] = test system: platelet aggregation induced by collagen in platelet-rich plasma; assay: Inhibition of collagen-induced platelet aggregation in platelet-rich plasma (aggregometer); details: amount in mg inhibiting aggregation by 50% in 1 mL platelet-rich plasma, collagen 5 mg/L, average of at least 3 IC50s; for IC50: Homo sapiens
Description: as §1, §2, §3, §4, §5, §6, §7, §8, §9

Molecule	IC50 [1] [mg/mL]	IC50 [2] [mg/mL]	IC50 [3] [mg/mL]	IC50 [4] [mg/mL]	IC50 AA [1] [mg]	IC50 TRAP [2] [mg]	IC50 ADP [3] [mg]	IC50 Collagen [4] [mg]
Nc1ccn([C@@H]2O[C@H](CO)[C@@H](O)[C@H]2O)c(=O)n1 [Compound 1, Cytidine]	39 (≈ 160 mM)	39 (≈ 160 mM)	2.42 (≈ 9.95 mM)	10.7 (≈ 43.8 mM)				
O=c1ccn([C@@H]2O[C@H](CO)[C@@H](O)[C@H]2O)c(=O)[nH]1 [Compound 3, Uridine]			6.51 (≈ 26.7 mM)	16 (≈ 65.5 mM)				
Nc1nc2c(ncn2[C@@H]2O[C@H](CO)[C@@H](O)[C@H]2O)c(=O)[nH]1 [Compound 4, Guanosine]		26.1 (≈ 92 mM)						
O=C(/C=C/c1ccc(O)c(O)c1)O[C@@H]1C[C@](O)(C(=O)O)C[C@@H](O)[C@H]1O [Compound 14, Chlorogenic acid]					0.77	1.1	10.08	10.11
O=C(O)/C=C/c1ccc(O)c(O)c1 [Compound 18, Caffeic acid]	7.33 (≈ 40.7 mM)	8.03 (≈ 44.6 mM)	19 (≈ 105 mM)	11.4 (≈ 63.1 mM)				
O=C(O)c1ccccc1 [Compound 20, Benzoic acid]					15.45	18.19	25.11	17.74
Adenosine 3′-monophospate [Compound 5]					2.41	24.51	0.12	0.28

Second part, the molecule after the results:

IC50 [1] [mg/mL]	IC50 [2] [mg/mL]	IC50 [3] [mg/mL]	IC50 [4] [mg/mL]	IC50 AA [1] [mg]	IC50 TRAP [2] [mg]	IC50 ADP [3] [mg]	IC50 Collagen [4] [mg]	Molecule
10.2 (≈ 62 mM)	12.8 (≈ 78.1 mM)	13.2 (≈ 80.5 mM)	14.6 (≈ 89.1 mM)					O=C(O)/C=C/c1ccc(O)cc1 [Compound 19, p-coumaric acid]
9.94 (≈ 51.2 mM)	14.7 (≈ 75.4 mM)	18.7 (≈ 96.1 mM)	13.9 (≈ 71.6 mM)					COc1cc(/C=C/C(=O)O)ccc1O [Compound 21, Ferulic acid]
	8.96 (≈ 14.7 mM)	35.2 (≈ 57.7 mM)	32.2 (≈ 52.7 mM)					C[C@@H]1O[C@@H](OC[C@H]2O[C@@H](Oc3c(-c4ccc(O)c(O)c4)oc4cc(O)cc(O)c4c3=O)[C@H](O)[C@@H](O)[C@@H]2O)[C@H](O)[C@H](O)[C@H]1O [Compound 27, Rutin]
3.66 (≈ 12.1 mM)	19.7 (≈ 65 mM)							O=c1c(O)c(-c2ccc(O)c(O)c2)oc2cc(O)cc(O)c12 [Compound 30, Quercetin]
5.18 (≈ 18.1 mM)	26.2 (≈ 91.5 mM)							O=c1c(O)c(-c2ccc(O)cc2)oc2cc(O)cc(O)c12 [Compound 31, Kaempferol]
10.4 (≈ 38.2 mM)	33.2 (≈ 122 mM)							O=C1C[C@@H](c2ccc(O)cc2)Oc2cc(O)cc(O)c21 [Compound 32, Naringenin]
